Laboratory results: US11505583B2, “Proteins for the treatment of epithelial barrier function disorders” (Second Genome, Inc., priority 2018, dated 2022)

Tests used:
[1] = test system: HCT8 enterocyte and HT29-MTX goblet cell lines; assay: Oris Cell Migration assay (epithelial cell wound healing); format: cell-based, human; conditions: 48 hours; SG-11 (SEQ ID NO:5 or SEQ ID NO:9) 1 μg/ml, EGF 30 ng/ml, staurosporine 100 nM; FIG. 2
Text: The 96 well Oris Cell Migration assay containing plugs preventing cell attachment in the center of each well was used according to the manufacturer's instructions (Platypus Technologies, Madison, Wis.). The migration assay plates were warmed to room temperature prior to use and plugs were removed from 100% confluence wells prior to cell addition. The HCT8 enterocyte and HT29-MTX goblet cell lines were used at a 9:1 ratio with a total of 5×10^4 total cells added per well (4.5×10^4 HCT8 cells and 0.5×10^4 HT29-MTX cells). Cells were incubated at 37° C.+5% CO2 for 24 hours. Plugs were then removed from all control and sample wells. Control wells included cells treated with the diluent vehicle as the blank, 30 ng/ml epidermal growth factor (EGF) as the positive control, and 100 nM staurosporine as the negative control, all diluted in cRPMI. Sample wells contained SG-11 protein (SEQ ID NO:9) at a concentration of 1 μg/ml diluted in cRPMI. 100% and 0% wells were cultured in cRPMI. […] The green fluorescent viability dye […] was added to all wells at a concentration of 0.5 μg/ml in PBS containing 0.9 mM CaCl2 and 0.5 mM MgCl2, incubated for 30 min at 37° C.+5% CO2, the dye was removed and cells were washed in PBS containing 0.9 mM CaCl2 and 0.5 mM MgCl2 and fluorescence was measured. […] Samples were normalized between 100% and 0% samples and values expressed as a percent growth.

[2] = test system: C57BL/6 mice given 2.5% DSS in drinking water; assay: Concurrent (prophylactic) DSS model of inflammatory bowel disease (Example 4, Example 13A); format: in vivo, mouse; conditions: 50 nmoles/kg i.p. b.i.d.
[3] = test system: C57BL/6 mice given 2.5% DSS in drinking water; assay: Therapeutic DSS model of inflammatory bowel disease, treatment after 7 days DSS (Example 5, Example 13B); format: in vivo, mouse
Procedure: In this example, experiments were performed to study the effects of SG-11 in the DSS mouse model when the SG-11 protein is administered to the mice after DSS treatment for 7 days. This differs from the treatment regimen of Example 4 above in which mice were administered SG-11 protein shortly before treatment with DSS.
Eight-week-old male C57BL/6 mice were housed 5 animals per cage and given food and water ad libitum for seven days. Following a 7-day acclimation period, the mice were provided with drinking water containing 2.5% DSS for 7 days. Fresh 2.5% DSS water was prepared every 2 days during the 7 day DSS administration. For this therapeutic DSS study, SG-11 used to treat the animals was fused at its N-terminus to a FLAG Tag (DYKDDDDK; SEQ ID NO:32).
On day 7 normal drinking water was restored and i.p. treatments of 50 nmole/kg of SG-11 (1.3 mg/kg) or Gly2-GLP2 (0.2 mg/kg) were initiated. Treatments were administered twice a day (b.i.d.), with a morning and evening dose (every 8 and 16 hours) for six days.
Body weight was measured daily during the morning treatment. The colon tissue was then harvested and length was measured in centimeters and the tissue was weighed. Fecal material was flushed from the colon and residual PBS removed by gently running the colon tissue through a pair of forceps. The colon tissue was then weighed and colon weight to length ratio in mg/mm was determined. Following weight measurements proximal and distal colon tissue was banked for RNA and protein analysis and the remaining tissues was fixed in 10% neutral buffered formalin for histopathology. Statistical analysis was performed by a one-way ANOVA compared to DSS+vehicle for serum 4KDa-FITC translocation, serum LBP concentrations, colon length, and colon weight to length ratio, while a two-way ANOVA was performed for analysis of body weight. In all analysis, a Fisher's LSD test for multiple comparisons was used. Graphs represent data pooled from two experiments, and are plotted as mean±SEM.
Histopathology analysis was performed on proximal and distal colon tissues from the therapeutic DSS model described above. Proximal (FIG. 13A) and distal (FIG. 13B) colon scores (range 0-4) are presented and as well as the total score for the colon which represents the sum of proximal and distal colon scores (Range 0-8) (FIG. 13C). LMA=Loss of mucosal architecture, Edema=Edema, INF=Inflammation, TMI=Transmural inflammation, MH=Mucosal hyperplasia, DYS=Dysplasia. Graphs represent data pooled from two independent experiments, and are plotted as mean±SEM. Statistical analysis was performed by a one-way ANOVA compared to DSS+vehicle followed by a Fisher's LSD test for multiple comparisons.
In the second experiment (Example 13B), mice were provided with drinking water containing 2.5% DSS for 7 days. On day 7 normal drinking water was restored and i.p. treatments of 50 nmole/kg of SG-11 (SEQ ID NO:7) (1.3 mg/kg), SG-11V5 (SEQ ID NO:19) (1.3 mg/kg), or Gly2-GLP2 (0.2 mg/kg) were initiated. […]
At the end of each DSS model study, mice were fasted for 4 hours and then orally gavaged with 600 mg/kg 4KDa dextran labeled with fluorescein isothiocyanate (FITC) [4KDa-FITC]. One hour after the 4KDa-FITC gavage mice were euthanized, blood was collected and FITC signal was measured in serum. […]
Upon completion of the DSS models above, LBP levels were measured as an inflammation centric readout of barrier function following the protocol detailed in Example 5. […]

[4] = mouse, in vivo, ip
[5] = Example 5, colon tissue, vs DSS+vehicle, FIG. 13

With CN[C@@H]1C[C@H]2O[C@@](C)([C@@H]1OC)n1c3ccccc3c3c4c(c5c6ccccc6n2c5c31)C(=O)NC4 [staurosporine] the “Percent growth (epithelial cell wound healing, proliferation)” value [1] was “suppressing cell proliferation”.

With “Gly2-GLP2: stable analog of glucagon-like peptide 2 (GLP2), positive control (HGDGSFSDEMNTILDNLAARDFINWLIQTKITD; Glucagon-like peptide 2; UniProt P01275 146-178, looked up, variant A2G) [reference compound]” the Colon length ([2]; FIG. 8A) was “significant improvement in colon length”, the “Colon weight to length ratio” value ([2]; FIG. 8B) was “significant improvement in colon weight to length ratios” and the LBP in serum ([3]; Example 5, 50 nmole/kg i.p. b.i.d. for six days after 7 days DSS, FIG. 10) was “no reduction in LBP”. For the same compound, the “Histopathology: inflammation and transmural inflammation scores” value [3, 5] was “no change”, the “Histopathology: loss of mucosal architecture score” value [3, 5] was “modest, but significant, reduction” and the “Colon weight to length ratio” value ([3]; Example 13B, 50 nmole/kg, vs DSS+vehicle, p<0.01, FIG. 23B) was “did not”. The “4KDa-FITC intestinal permeability readout and serum LBP” value ([3]; treatment after 7 days DSS, 50 nmole/kg i.p. b.i.d. for six days, FLAG-tagged SG-11) was “no significant effects”.

With “epidermal growth factor [EGF, positive control in the wound healing assay]” the “Percent growth (epithelial cell wound healing, proliferation)” value [1] was “increasing proliferation”.

For “fluorescently labeled bovine serum albumin: tracer protein used in preliminary tracking studies after i.p. injection”, the “Time at which protein reached the colon after i.p. delivery” value [4] was 6 h.
